Laboratory results taken from patent US12156915B2, “Selected artemisinin dimers for the treatment of lashmaniasis” (priority 2020, dated 2024).
Several values for one entry are separate records, joined by “and”; a condition that tells them apart may be missing. Equal values may be shown once. Entries after “also recorded” stand apart in the source; their conditions may differ.

Experiments:
[1] = tested on: intracellular amastigote form of L. donovani parasite in differentiated THP1 cells; assay: Parasite rescue and transformation assay (macrophage internalized amastigotes); type: cell-based, Leishmania donovani; conditions: for selectivity index (SI): IC50 of cytotoxicity divided by IC50 in parasite rescue and transformation assay; for IC50: Leishmania donovani, THP-1, parasite rescue and transformation assay, read-out: IC50 anti-leishmanial activity, intracellular amastigote
Experimental: This assay is based on the previously published protocol by Jain et al. (35). A 3-day old culture of THP1 cells in the exponential phase was diluted with RPMI medium to 2.5×10^5 cells/ml. PMA was added to final a concentration of 25 ng/ml. PMA treated culture was dispensed in clear flat bottom culture plates and incubated overnight at 37° C. in a 5% CO2 incubator. The plates with differentiated THP1 Cells were washed with serum-free medium with the help of Molecular device AquaMax 4000. A 5-6-day old L. donovani promastigote culture diluted to 5×10^6 cells/ml was added over differentiated THP1 cells. The Macrophage cells to parasite ratio for infection was 1:10. The plates were incubated for 24 hrs. After 24 hrs., the plates were again washed with the help of AquaMax 4000 and the serum-free medium was replaced by a medium with diluted test samples. The plates were placed again in a CO2 incubator at […] for 48 hrs. After 48 hrs., the macrophage amastigote plates were washed and treated with 0.05% SDS for 30 secs., and diluted SDS medium was immediately replaced with complete RPMI medium. Plates were incubated for amastigote to promastigote transformation, and promastigote growth at […] for 48 hrs. After 48 hrs., 5 μl of alamar blue was added to each well of macrophage amastigote assay plates, and the plates were incubated further for 24 hrs. Standard fluorescence was measured on a Fluostar Galaxy fluorometer (BMG LabTechnologies) at 544 nm ex, 590 nm em. Xlfit 5.3.1 software has generated all dose response curves.

[2] = tested on: L. donovani promastigotes; assay: Annexin V binding apoptosis assay (Annexin V/Propidium Iodide flow cytometry); type: cell-based, Leishmania donovani; conditions: for apoptotic effect on promastigotes: dimers 14 μM, artemisinin 35 μM, 24 to 72 hrs
Excerpt: Apoptosis, also known as programmed cell death, is a physiological process of removal of unwanted cells (37). In one of the earlier events, the process of apoptosis includes translocation of membrane phosphatidylserine from the inner side of the cell membrane to the surface (38). Annexin V is a Ca^++ dependent phospholipid-binding protein which has a high affinity for phosphatidylserine (39). So FITC-labeled Annexin V can be used for the analysis of exposed PS using a flow cytometer (40). Apoptosis analysis was done by flow cytometry using Annexin V/Propidium Iodide staining method. […] 1×10^7 promastigote cells/ml were treated with artemisinin (35 μM), dimer Morpholine (14 μM) and dimer GABA (14 μM). Aliquots were withdrawn at different time intervals and stained with FITC-Annexin V and Propidium Iodide. The cell was analyzed by flow-cytometry. […] 50,000 in a gated event were run in a FL2 (Propidium Iodide)/FL1 (Annexin FITC) and analyzed by quadrangle plot.

[3] = tested on: promastigote form of L. donovani parasite; assay: Leishmania donovani promastigote assay (alamar blue); type: cell-based; conditions: read-out: IC50 anti-leishmanial activity, promastigote
Experimental: THP-1 cells (human monocytic leukemia cells) were made available by the American Type Culture Collection (ATCC) and were maintained in RPMI 1640 media (Life-Technologies) supplemented with Sodium Pyruvate, Glutamine, HEPES (Life-81 Technologies) and 10% heat-inactivated FBS (Sigma). The culture was maintained at 37° C. in 5% CO2 incubator. THP1 cells Subculture was done every 3-4 days. Promastigote forms of Leishmania donovani (S1 strain) was grown in RPMI 1640 medium at pH 7.4 supplemented with 10% fetal bovine serum. The culture was maintained at 26° C. by incubator. Subculture was done every 3-4 days. The promastigote assay was based on alamar blue base growth analysis (33). A 3-4 day old promastigote culture in the exponential phase was diluted with RPMI 1640 medium, to 1×10^6 cells/ml. Artemisinin dimer samples were diluted to stock concentration of 2 mg/ml. Artemisinin dimer samples were dispensed in culture plates and diluted with a promastigote culture so the final highest concentration of samples was 10 μg/ml, and highest concentration of parent artemisinin was 40 μg/ml. The culture with the highest concentration of each artemisinin dimer was serially diluted in 1:5 ratio to 6 different concentrations. All artemisinin dimers were tested in triplicate. […] Standard fluorescence was measured on a Fluostar Galaxy fluorometer (BMG LabTechnologies) at 544 nm ex, 590 nm em. […]

[4] = THP1 cytotoxicity assay (alamar blue); type: cell-based; conditions: human, PMA-differentiated THP1 cells, 48 hrs + 24 hrs alamar blue
Experimental: THP-1 cells (human monocytic leukemia cells) were made available by the American Type Culture Collection (ATCC) and were maintained in RPMI 1640 media (Life-Technologies) supplemented with Sodium Pyruvate, Glutamine, HEPES (Life-81 Technologies) and 10% heat-inactivated FBS (Sigma). The culture was maintained at 37° C. in 5% CO2 incubator. THP1 cells Subculture was done every 3-4 days. Promastigote forms of Leishmania donovani (S1 strain) was grown in RPMI 1640 medium at pH 7.4 supplemented with 10% fetal bovine serum. The culture was maintained at 26° C. by incubator. Subculture was done every 3-4 days.
A 3-day old culture of THP1 cells in the exponential phase was diluted with RPMI medium to 2.5×10^5 cells/ml. PMA was added to final a concentration of 25 ng/ml. PMA treated culture was dispensed in clear flat bottom culture plates and incubated overnight at 37° C. in a 5% CO2 incubator. The plates with differentiated THP1 cells were washed with serum-free medium with the help of Molecular device AquaMax 4000 and the serum-free medium was replaced by a medium with diluted test samples. The plates were placed again in a CO2 incubator at […] for 48 hrs. […] Standard fluorescence was measured on a Fluostar Galaxy fluorometer (BMG LabTechnologies) at 544 nm ex, 590 nm em. […]

Structure (SMILES): C[C@H]1[C@@H](OCC(CO[C@H]2O[C@@H]3O[C@@]4(C)CC[C@H]5[C@H](C)CC[C@@H]([C@H]2C)[C@@]35OO4)N2CCOCC2)OC2O[C@@]3(C)CC[C@H]4[C@H](C)CC[C@@H]1[C@@]24OO3 (stereo partly drawn) [Dimer Morpholine]
- selectivity index (SI) [1]: > 2056 and > 2052
- IC50 [1]: 0.007 µM
- population in UR area of FL2/FL1 dot plot, 48 hrs compared to 24 hrs ([2]; 14 μM): significantly (P<0.0001) higher population
- population in UR area of FL2/FL1 dot plot, 72 hrs compared to 24 hrs ([2]; 14 μM): significantly (P<0.0001) higher population
- population in Upper Right (UR, late apoptosis) area of FL2 (PI)/FL1 (Annexin FITC) dot plot compared to control group ([2]; 14 μM, 24 hrs): significantly (P<0.0001) higher population
- population in UR area of FL2/FL1 dot plot compared to control group ([2]; 14 μM, 48 hrs): significantly (P<0.0001) higher population
- population in UR area of FL2/FL1 dot plot compared to control group ([2]; 14 μM, 72 hrs): significantly (P<0.0001) higher population
- apoptotic effect on promastigotes [2]: time-dependent apoptotic effect

Structure (SMILES): C[C@@H]1[C@H](O)[C@@H](C)/C=C/C=C/C=C/C=C/C=C/C=C/C=C/[C@H](O[C@@H]2O[C@H](C)[C@@H](O)[C@H](N)[C@@H]2O)C[C@@H]2O[C@](O)(C[C@@H](O)C[C@@H](O)[C@H](O)CC[C@@H](O)C[C@@H](O)CC(=O)O[C@H]1C)C[C@H](O)[C@H]2C(=O)O [amphotericin, amphotericin B]
- selectivity index (SI) [1]: 201
- IC50 [1]: 0.062 µM

Structure (SMILES): C[C@@H]1CC[C@H]2[C@@H](C)C(=O)O[C@@H]3O[C@@]4(C)CC[C@@H]1[C@]32OO4 [artemisinin]
- IC50 [1]: > 35.4 µM
- anti-leishmanial (leishmanicidal) effect ([2]; artemisinin at 35 μM): does not have an anti-leishmanial effect; also recorded: does not have leishmanicidal or apoptotic effect
- apoptotic effect on promastigotes [2]: does not have; also recorded: does not have leishmanicidal or apoptotic effect
- IC50 [3]: 99.2 µM

Structure (SMILES): C[C@H]1[C@@H](OC/C(CO[C@H]2O[C@@H]3O[C@]4(C)CC[C@H]5[C@H](C)CC[C@@H]([C@H]2C)[C@@]35OO4)=N\O)O[C@@H]2OC3(C)CC[C@H]4[C@H](C)CC[C@@H]1[C@@]24OO3 [dimer oxime]
- IC50 at 48 h [4]: 11.4 µM

Structure (SMILES): C[C@H]1[C@@H](OCC(CO[C@H]2O[C@@H]3O[C@@]4(C)CC[C@H]5[C@H](C)CC[C@@H]([C@H]2C)[C@@]35OO4)NCCc2c[nH]c3ccccc23)OC2O[C@@]3(C)CC[C@H]4[C@H](C)CC[C@@H]1[C@@]24OO3 (stereo partly drawn) [dimer tryptamine]
- IC50 at 48 h [4]: 7.39 µM

Structure (SMILES): N=C(N)c1ccc(OCCCCCOc2ccc(C(=N)N)cc2)cc1 [pentamidine]
- selectivity index (SI) [1]: 63
- IC50 [1]: 0.545 µM
